Measurements taken from patent US6632669B2, “Plant kinases and methods of modulation of their activity in plants” (The Salk Institute for Biological Studies, priority 1999, dated 2003).

Assays:
[1] = test system: Arabidopsis MAP kinase; settings: tobacco cell extract, protoplasts treated with 2,4-D; cited from earlier work
[2] = test system: 35S::PID T2 plants; assay: Lateral root formation of 35S::PID T2 plants grown on plates supplemented with NAA; assay type: in vivo, Arabidopsis; settings: 10 days on 0.1 μm NAA
Method: (§1) Plants were grown in florescent light under long-day conditions (16 hours light, 8 hours dark). Wild type was Columbia. Transgenic plants were generated by vacuum infiltration (Bechtold et al. (1993) C. R. Acad. Sci. 316:1194-1199). For root gravitropism experiments, seeds were grown on vertically oriented 1/2×MS plates at 24° C.
To determine whether the loss of lateral root formation in 35::PID plants could be bypassed by exogenous auxin, T2 plants were grown on plates supplemented with the synthetic auxin-analog NAA ([…]). […] As in the previous experiment, there was a perfect correlation between loss of lateral root formation and agravitropic root growth.

[3] = test system: 35S::PID plants; assay: Root growth in response to exogenous auxin in 35S::PID plants (selected on kanamycin plates with NAA); assay type: in vivo, Arabidopsis; settings: for Lateral roots / Primary root length: mean ± standard deviation
Method: as §1
The failure of 35S::PID plants to develop lateral roots in response to exogenous auxin can be explained by defects in either auxin uptake or response. To distinguish between these possibilities, 35S: PID plants was selected on plates containing kanamycin and 0, 0.1, 1.0 or 10.0 μM NAA.

## O=C(O)COc1ccc(Cl)cc1Cl [2,4-D]
[1]
  Effectiveness of MAP kinase phosphorylation by extract of treated protoplasts versus extracts from auxin-starved cultures: three to four-fold more effective

## O=C(O)Cc1ccc2ccccc2c1 [NAA, β-napthaleneacetic acid]
[2]; T2 plants
  Bypass of the block in lateral root formation caused by PID overexpression: did not overcome the block in lateral root formation
[2]; T2 progeny of 35S::PID, 11 of 37 germinated seedlings (range 18-31), remaining 26 produced none
  Average number of lateral roots in seedlings that produced lateral roots: 24
[3]; 35S::PID plants
  Lateral root growth at very high NAA concentrations: still inhibited
[3]; 35S::PID plants, 0, 0.1, 1.0 or 10.0 μM NAA
  Primary root elongation with increasing NAA concentration: progressively inhibited
[3]; 35S::PID plants, [NAA] 0.1 μM
  Lateral roots: 0.1 ± 0.3
  Primary root length: 11.6 ± 5.9 mm
[3]; 35S::PID plants, [NAA] 1 μM
  Lateral roots: 0.1 ± 0.3
  Primary root length: 6.0 ± 3.1 mm
[3]; 35S::PID plants, [NAA] 10 μM
  Lateral roots: 0.7 ± 1.2
  Primary root length: 1.4 ± 0.5 mm
